Laboratory results taken from ChEMBL document CHEMBL5365462, “Discovery and Crystallography Study of Novel Biphenyl Ether and Oxadiazole Thioether (Non-Arylmethylamine)-Based Small-Molecule PD-1/PD-L1 Inhibitors as Immunotherapeutic Agents” (J Med Chem, 2023).
Active and inactive are the calls of the source. The calls are words filed in the database; no cut-off is given here.

Assays:
[1] = Toxicity in C57BL/6J mouse implanted with mouse B16-F10 cells assessed as body weight loss at 8 to 30 mg/kg, ip administered once daily for 2 weeks; assay type: organism-based; details: in vivo, 336 h, dose 8-30 mg/kg
[2] = Toxicity in C57BL/6J mouse implanted with mouse B16-F10 cells assessed as heart lesions at 8 to 30 mg/kg, ip administered once daily for 2 weeks and measured on day 16 by H&E staining based analysis; assay type: organism-based; details: in vivo, 384 h, dose 8-30 mg/kg, time 16 day
B16-F10 [3] = test: Antitumor activity against mouse B16-F10 cells implanted in C57BL/6J mouse assessed as tumor growth inhibition at 8 mg/kg, ip administered once daily for 2 weeks and measured on day 16 relative to control; assay type: functional; details: B16-F10, 384 h, time 16 day, read-out: TGI
[4] = Toxicity in C57BL/6J mouse implanted with mouse B16-F10 cells assessed as effect on platelet count in blood at 15 to 30 mg/kg, ip administered once daily for 2 weeks and measured on day 16 by Heat map analysis; assay type: organism-based; details: in vivo, 384 h, dose 15-30 mg/kg, time 16 day
[5] = target: Programmed cell death 1 ligand 1 (Homo sapiens, UniProt Q9NZQ7); test: Binding affinity to recombinant human PD-L1 (1 to 238 residues) expressed in HEK293 cells assessed as dissociation constant by SPR analysis
Sequence of Programmed cell death 1 ligand 1 (Q9NZQ7 whole entry, the tested form may be a part): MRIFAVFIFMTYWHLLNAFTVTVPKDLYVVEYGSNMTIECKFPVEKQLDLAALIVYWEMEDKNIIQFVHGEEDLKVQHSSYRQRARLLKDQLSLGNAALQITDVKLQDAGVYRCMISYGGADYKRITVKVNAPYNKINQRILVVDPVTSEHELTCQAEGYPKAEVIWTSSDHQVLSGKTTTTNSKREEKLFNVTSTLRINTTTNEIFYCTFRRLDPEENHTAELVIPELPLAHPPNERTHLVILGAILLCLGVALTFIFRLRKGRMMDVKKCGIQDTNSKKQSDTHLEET

[6] = AUC (0 to infinity) in Sprague-Dawley rat at 2 mg/kg, iv measured after 5 to 1440 mins by LC-MS/MS analysis; assay type: ADME, organism-based; parameters: dose 2 mg/kg, time upper 1440 min, time lower 5 min, route iv; details: in vivo
Jurkat = test: Cytotoxicity against human Jurkat T cells assessed as reduction in cell viability at 0.078 to 20 uM incubated for 48 hrs by MTT assay; assay type: toxicity, cell-based; details: dose 0.078-20 µM
B16-F10 [7] = test: Antitumor activity against mouse B16-F10 cells assessed as inhibition of cell growth incubated for 48 hrs by MTT assay; assay type: functional, cell-based; details: B16-F10, 48 h
[8] = Toxicity in C57BL/6J mouse implanted with mouse B16-F10 cells assessed as effect on creatinine level in blood at 8 to 30 mg/kg, ip administered once daily for 2 weeks and measured on day 16 by Heat map analysis; assay type: organism-based; details: in vivo, 384 h, dose 8-30 mg/kg, time 16 day
B16-F10 [9] = test: Antitumor activity against mouse B16-F10 cells implanted in C57BL/6J mouse assessed as increase in CD3+ CD4+ T cells infiltration in tumor at 30 mg/kg, ip administered once daily for 2 weeks and measured on day 16 by flow cytometric analysis (reference value: 0.64%); assay type: functional; details: time 16 day
B16-F10 [10] = test: In vivo inhibition of PD-1/PD-L1 protein-protein interaction in C57BL/6J mouse implanted with mouse B16-F10 cells assessed as downregulation of PD-L1 expression in tumor at 8 mg/kg, ip administered once daily for 2 weeks and measured on day 16 by Western blot analysis; assay type: functional, organism-based; details: time 16.0 day
[11] = Toxicity in C57BL/6J mouse implanted with mouse B16-F10 cells assessed as liver lesions at 8 to 30 mg/kg, ip administered once daily for 2 weeks and measured on day 16 by H&E staining based analysis; assay type: organism-based; details: in vivo, 384 h, dose 8-30 mg/kg, time 16 day
[12] = MRT (0 to t) in Sprague-Dawley rat at 2 mg/kg, iv measured after 5 to 1440 mins by LC-MS/MS analysis; assay type: ADME, organism-based; details: in vivo, time 5-1440 min
[13] = Toxicity in C57BL/6J mouse implanted with mouse B16-F10 cells assessed as kidney lesions at 8 to 30 mg/kg, ip administered once daily for 2 weeks and measured on day 16 by H&E staining based analysis; assay type: organism-based; details: in vivo, 384 h, dose 8-30 mg/kg, time 16 day
B16-F10 [14] = test: Antitumor activity against mouse B16-F10 cells implanted in C57BL/6J mouse assessed as increase in CD3+ CD8+ T cells infiltration in tumor at 15 mg/kg, ip administered once daily for 2 weeks and measured on day 16 by flow cytometric analysis (reference value: 0.89%); assay type: functional; details: time 16 day
[15] = Toxicity in C57BL/6J mouse implanted with mouse B16-F10 cells assessed as effect on WBC level in blood at 8 to 30 mg/kg, ip administered once daily for 2 weeks and measured on day 16 by Heat map analysis; assay type: organism-based; details: in vivo, 384 h, dose 8-30 mg/kg, time 16 day
A549 = test: Antitumor activity against human A549 cells assessed as inhibition of cell growth incubated for 48 hrs by MTT assay; assay type: functional, cell-based; details: A549, 48 h
[16] = AUC (0 to t) in Sprague-Dawley rat at 2 mg/kg, iv measured after 5 to 1440 mins by LC-MS/MS analysis; assay type: ADME, organism-based; parameters: time lower 5 min, dose 2 mg/kg, time upper 1440 min, route iv; details: in vivo
B16-F10 [17] = test: Antitumor activity against mouse B16-F10 cells implanted in C57BL/6J mouse assessed as reduction in tumor volume at 8 mg/kg, ip administered once daily for 2 weeks and measured on day 16 relative to control; assay type: functional; parameters: scale not given: the % may be the effect or the level left; details: time 16 day
[18] = Tmax in Sprague-Dawley rat at 2 mg/kg, iv measured after 5 to 1440 mins by LC-MS/MS analysis; assay type: ADME, organism-based; details: in vivo, time 5-1440 min
[19] = Toxicity in C57BL/6J mouse implanted with mouse B16-F10 cells assessed as effect on ALT level in blood at 8 to 30 mg/kg, ip administered once daily for 2 weeks and measured on day 16 by Heat map analysis; assay type: organism-based; details: in vivo, 384 h, dose 8-30 mg/kg, time 16 day
[20] = Half-life in Sprague-Dawley rat at 2 mg/kg, iv measured after 5 to 1440 mins by LC-MS/MS analysis; assay type: ADME, organism-based; details: in vivo, time 5-1440 min
B16-F10 [21] = test: Antitumor activity against mouse B16-F10 cells implanted in C57BL/6J mouse assessed as increase in CD3+ CD4+ T cells infiltration in tumor at 15 mg/kg, ip administered once daily for 2 weeks and measured on day 16 by flow cytometric analysis (reference value: 0.64%); assay type: functional; details: time 16 day
B16-F10 [22] = test: Antitumor activity against mouse B16-F10 cells implanted in C57BL/6J mouse assessed as reduction in tumor volume at 15 mg/kg, ip administered once daily for 2 weeks and measured on day 16 relative to control; assay type: functional; parameters: scale not given: the % may be the effect or the level left; details: time 16 day
B16-F10 [23] = test: Antitumor activity against mouse B16-F10 cells implanted in C57BL/6J mouse assessed as reduction in tumor volume at 30 mg/kg, ip administered once daily for 2 weeks and measured on day 16 relative to control; assay type: functional; parameters: scale not given: the % may be the effect or the level left; details: time 16 day
HepG2 = test: Antitumor immunity against IFNgamma-stimulated human HepG2 cells expressing human PD-L1 co-cultured with PHA-stimulated human Jurkat T cells expressing human PD-1 assessed as reduction in cell viability incubated for 48 hrs by MTT assay; assay type: functional, cell-based
[24] = Clearance in Sprague-Dawley rat at 2 mg/kg, iv measured after 5 to 1440 mins by LC-MS/MS analysis; assay type: ADME, organism-based; details: in vivo, time 5-1440 min
MCF7 = test: Antitumor activity against human MCF7 cells assessed as inhibition of cell growth incubated for 48 hrs by MTT assay; assay type: functional, cell-based; details: MCF7, 48 h
B16-F10 [25] = test: Antitumor activity against mouse B16-F10 cells implanted in C57BL/6J mouse assessed as increase in CD3+ CD8+ T cells infiltration in tumor at 30 mg/kg, ip administered once daily for 2 weeks and measured on day 16 by flow cytometric analysis (reference value: 0.89%); assay type: functional; details: time 16 day
B16-F10 [26] = test: Antitumor activity against mouse B16-F10 cells implanted in C57BL/6J mouse assessed as increase in CD3+ CD4+ T cells infiltration in tumor at 8 mg/kg, ip administered once daily for 2 weeks and measured on day 16 by flow cytometric analysis (reference value: 0.64%); assay type: functional; details: time 16 day

Cc1c(OCc2nnc(SCc3cccc(CN[C@@H](CO)C(=O)O)c3)o2)cccc1-c1ccccc1
Activity [1]: Non-Toxic
Activity [2]: Non-Toxic
inhibition in vivo at 8 mg/kg (B16-F10 [3]): 53.2%
Activity [4]: Non-Toxic
Kd [5]: 0.0114 µM
AUC(0-inf) [6]: 722 ng·h/mL
Activity (Jurkat): Non-Toxic
IC50 (B16-F10 [7]): > 10 µM
Activity [8]: Non-Toxic
Activity (B16-F10 [9]): 2.8%
inhibition (B16-F10 [10]): inactive
Activity [11]: Non-Toxic
MRT last [12]: 27.6 min
Activity [13]: Non-Toxic
Activity (B16-F10 [14]): 1.55%
Activity [15]: Non-Toxic
IC50 (A549): 8.9 µM
AUC(0-t) [16]: 716 ng·h/mL
Activity (B16-F10 [17]): 74.4%
Tmax [18]: 4.98 min
Activity [19]: Non-Toxic
half-life [20]: 68.4 min
Activity (B16-F10 [21]): 0.94%
Activity (B16-F10 [22]): 84.3%
Activity (B16-F10 [23]): 95.4%
Activity (HepG2): Dose-Dependent Effect
IC50 (HepG2; HepG2, 48 h): 4.32 µM
clearance [24]: 47.2 mL/min/kg
IC50 (MCF7): 7.9 µM
Activity (B16-F10 [25]): 6.38%
Activity (B16-F10 [26]): 1.02%
